Laboratory results published in patent US20240226026A1, “BRANCHED TAIL LIPID COMPOUNDS AND COMPOSITIONS FOR INTRACELLULAR DELIVERY OF THERAPEUTIC AGENTS” (ModernaTX, Inc., priority 2021, published 2024).

tested on: CD-1 mice; assay: Expression of hEPO induced by LNPs (mRNA encoding hEPO) administered to mice; assay type: in vivo; settings: Table 4a, serum, 6 h after intravenous injection, ELLA Simple Plex Assay
Method: In some embodiments, hEPO concentrations were determined using an […] (ELLA) Simple Plex Assay (ProteinSimple) with a Human Erythroprotein cartridge. Standards for this assay are calibrated according to the 2. IRP WHO preparation. Nanoparticle compositions including mRNA are useful in the evaluation of the efficacy and usefulness of various formulations for the delivery of therapeutic and/or prophylactics. Higher levels of protein expression induced by administration of a composition including an mRNA will be indicative of higher mRNA translation and/or nanoparticle composition mRNA delivery efficiencies. As the non-RNA components are not thought to affect translational machineries themselves, a higher level of protein expression is likely indicative of a higher efficiency of delivery of the therapeutic and/or prophylactic by a given nanoparticle composition relative to other nanoparticle compositions or the absence thereof.
To assess potency of expression of lipids of the disclosure, the protein expression (hEPO) following administration of a nanoparticle comprising a lipid of the disclosure (e.g., a loaded LNP) to mice was measured.
Lipid nanoparticles (LNPs) including DSPC as a phospholipid, cholesterol as a structural lipid, PL-II (e.g., PEG-1) as a PEG lipid, a lipid according to Formula (I-1), (I), (I-A), (I-A1), (I-A2), (I-A3), or (I-A4), and an mRNA encoding hEPO were intravenously administered to CD-1 mice. The concentration of hEPO in serum was tested at 6 h after injection.

SMILES | Avg. hEPO Concentration (mIU/mL)* ± Avg. SD [mIU/mL]
CCCCCCCC(CCCCCCC)OC(=O)CCCCCCCN(CCCCCCCC(=O)OCCC(CCCC)CCCC)CCCNS(=O)(=O)Cc1ccon1 [Compound 20] | 5.30E+06 ± 1.59E+05
CCCCCCCC(CCCCCCC)OC(=O)CCCCCCCN(CCCCCCCC(=O)OCCC(CCCC)CCCC)CCCNc1ncccc1N [Compound 21] | 8.77E+05 ± 1.73E+04
CCCCCC(CCCCC)CCOC(=O)CCCCCCCN(CCCCCCCC(=O)OCCC(CCCCC)CCCCC)CCCNc1noc(N)n1 [Compound 23] | 1.17E+06 ± 1.91E+04

tested on: not listed separately; assay: Particle size (diameter) and polydispersity index of lipid nanoparticles; assay type: physicochemical; settings: Table 2b; nanoparticles comprising the lipid
Method: A Zetasizer Nano ZS (Malvern Instruments Ltd, Malvern, Worcestershire, UK) can be used to determine the particle size, the polydispersity index (PDI) and the zeta potential of the nanoparticle compositions in 1×PBS in determining particle size and 15 mM PBS in determining zeta potential.
Lipid nanoparticles (e.g., empty LNPs or loaded LNPs) may be characterized by a variety of methods. For example, microscopy (e.g., transmission electron microscopy or scanning electron microscopy) may be used to examine the morphology and size distribution of a nanoparticle composition. Dynamic light scattering or potentiometry (e.g., potentiometric titrations) may be used to measure zeta potentials. Dynamic light scattering may also be utilized to determine particle sizes. Instruments such as the Zetasizer Nano ZS (Malvern Instruments Ltd, Malvern, Worcestershire, UK) may also be used to measure multiple characteristics of a nanoparticle composition, such as particle size, polydispersity index, and zeta potential.
(§1) Lipid nanoparticles (e.g., empty LNPs or loaded LNPs) including DSPC as a phospholipid, cholesterol as a structural lipid, PL-II (e.g., PEG-1) as a PEG lipid, and a lipid according to Formula (I-1), (I), (I-A), (I-A1), (I-A2), (I-A3), or (I-A4) were prepared. In some embodiments, the lipid nanoparticles further included rhodamine-DOPE as a fluorescent lipid. Tables 2a, 2b, and 3 summarize the characteristics of the formulations.

Diameter (nm) | PDI | SMILES
76.7 | 0.132 | CCCCCCCC(CCCCCCC)OC(=O)CCCCCCCN(CCCCCCCC(=O)OCCC(CCCC)CCCC)CCCNS(=O)(=O)Cc1ccon1 [Compound 20]
98.9 | 0.305 | CCCCCCCC(CCCCCCC)OC(=O)CCCCCCCN(CCCCCCCC(=O)OCCC(CCCC)CCCC)CCCNc1ncccc1N [Compound 21]
87.2 | 0.181 | CCCCCC(CCCCC)CCOC(=O)CCCCCCCN(CCCCCCCC(=O)OCCC(CCCCC)CCCCC)CCCNc1noc(N)n1 [Compound 23]

same assay, conditions: Table 3; nanoparticles comprising the lipid

Diameter (nm) | PDI | SMILES
66 | 0.106 | CCCCCCCC(CCCCCCC)OC(=O)CCCCCCCN(CCCCCCCC(=O)OCCC(CCCC)CCCC)CCCNS(=O)(=O)Cc1ccon1 [Compound 20]
92.8 | 0.255 | CCCCCCCC(CCCCCCC)OC(=O)CCCCCCCN(CCCCCCCC(=O)OCCC(CCCC)CCCC)CCCNc1ncccc1N [Compound 21]
62.7 | 0.144 | CCCCCC(CCCCC)CCOC(=O)CCCCCCCN(CCCCCCCC(=O)OCCC(CCCCC)CCCCC)CCCNc1noc(N)n1 [Compound 23]

tested on: not listed separately; assay: Apparent pKa of lipid nanoparticles; assay type: physicochemical; settings: Table 2b; 95% confidence interval

Apparent pKa 95% CI | SMILES
6.441 to 6.526 | CCCCCCCC(CCCCCCC)OC(=O)CCCCCCCN(CCCCCCCC(=O)OCCC(CCCC)CCCC)CCCNS(=O)(=O)Cc1ccon1 [Compound 20]
6.685 to 6.778 | CCCCCCCC(CCCCCCC)OC(=O)CCCCCCCN(CCCCCCCC(=O)OCCC(CCCC)CCCC)CCCNc1ncccc1N [Compound 21]
6.511 to 6.611 | CCCCCC(CCCCC)CCOC(=O)CCCCCCCN(CCCCCCCC(=O)OCCC(CCCCC)CCCCC)CCCNc1noc(N)n1 [Compound 23]

tested on: not listed separately; assay: Encapsulation efficiency (% EE) of lipid nanoparticles; assay type: physicochemical; settings: Table 2b; nanoparticles comprising the lipid
Method: For nanoparticle compositions including an RNA, a QUANT-IT™ RIBOGREEN® RNA assay (Invitrogen Corporation Carlsbad, CA) can be used to evaluate the encapsulation of an RNA by the nanoparticle composition. The samples are diluted to a concentration of approximately 5 μg/mL in a TE buffer solution (10 mM Tris-HCl, 1 mM EDTA, pH 7.5). 50 μL of the diluted samples are transferred to a polystyrene 96 well plate and either 50 μL of TE buffer or 50 μL of a 2% Triton X-100 solution is added to the wells. The plate is incubated at a temperature of 37° C. for 15 minutes. The RIBOGREEN® reagent is diluted 1:100 in TE buffer, and 100 μL of this solution is added to each well. The fluorescence intensity can be measured using a fluorescence plate reader (Wallac Victor 1420 Multilablel Counter; Perkin Elmer, Waltham, MA) at an excitation wavelength of, for example, about 480 nm and an emission wavelength of, for example, about 520 nm. The fluorescence values of the reagent blank are subtracted from that of each of the samples and the percentage of free RNA is determined by dividing the fluorescence intensity of the intact sample (without addition of Triton X-100) by the fluorescence value of the disrupted sample (caused by the addition of Triton X-100).
The efficiency of encapsulation of a therapeutic and/or prophylactic describes the amount of therapeutic and/or prophylactic that is encapsulated or otherwise associated with a lipid nanoparticle (e.g., an empty LNP or a loaded LNP) after preparation, relative to the initial amount provided. The encapsulation efficiency is desired to be high (e.g., close to 100%). The encapsulation efficiency may be measured, for example, by comparing the amount of therapeutic and/or prophylactic in a solution containing a loaded LNP before and after breaking up the loaded LNP with one or more organic solvents or detergents. Fluorescence may be used to measure the amount of free therapeutic and/or prophylactic (e.g., RNA) in a solution. For the loaded LNPs formulated with lipids of the disclosure, the encapsulation efficiency of a therapeutic and/or prophylactic is at least 50%, for example 50%, 55%, 60%, 65%, 70%, 75%, 80%, 85%, 90%, 91%, 92%, 93%, 94%, 95%, 96%, 97%, 98%, 99%, or 100%. In some embodiments, the encapsulation efficiency is at least 80%. In some embodiments, the encapsulation efficiency is at least 90%. In some embodiments, the encapsulation efficiency of the therapeutic and/or prophylactic agent is between 80% and 100%.
as §1

% EE [%] | SMILES
84.0 | CCCCCCCC(CCCCCCC)OC(=O)CCCCCCCN(CCCCCCCC(=O)OCCC(CCCC)CCCC)CCCNS(=O)(=O)Cc1ccon1 [Compound 20]
97.9 | CCCCCCCC(CCCCCCC)OC(=O)CCCCCCCN(CCCCCCCC(=O)OCCC(CCCC)CCCC)CCCNc1ncccc1N [Compound 21]
98.1 | CCCCCC(CCCCC)CCOC(=O)CCCCCCCN(CCCCCCCC(=O)OCCC(CCCCC)CCCCC)CCCNc1noc(N)n1 [Compound 23]

same assay, conditions: Table 3; nanoparticles comprising the lipid

% EE [%] | SMILES
87.5 | CCCCCCCC(CCCCCCC)OC(=O)CCCCCCCN(CCCCCCCC(=O)OCCC(CCCC)CCCC)CCCNS(=O)(=O)Cc1ccon1 [Compound 20]
98.4 | CCCCCCCC(CCCCCCC)OC(=O)CCCCCCCN(CCCCCCCC(=O)OCCC(CCCC)CCCC)CCCNc1ncccc1N [Compound 21]
96.4 | CCCCCC(CCCCC)CCOC(=O)CCCCCCCN(CCCCCCCC(=O)OCCC(CCCCC)CCCCC)CCCNc1noc(N)n1 [Compound 23]

tested on: not listed separately; assay: Lipid nanoparticle surface hydrophobicity by Generalized Polarization by Laurdan (N-GP); assay type: physicochemical; settings: Table 2b; nanoparticles comprising the lipid
Excerpt: Surface hydrophobicity of nanoparticles of the disclosure can be measured by Generalized Polarization by Laurdan (GPL). In this method, Laurdan, a fluorescent aminonaphthalene ketone lipid, is post-inserted into the nanoparticle surface and the fluorescence spectrum of Laurdan is collected to determine the normalized Generalized Polarization (N-GP). In some embodiments, nanoparticles formulated with lipids of the disclosure have a surface hydrophobicity expressed as N-GP of between about 0.5 and about 1.5. For example, in some embodiments, nanoparticles formulated with lipids of the disclosure have a surface hydrophobicity expressed as N-GP of about 0.5, about 0.6, about 0.7, about 0.8, about 0.9, about 1.0, about 1.1, about 1.2, about 1.3, about 1.4, or about 1.5. In some embodiments, nanoparticles formulated with lipids of the disclosure have a surface hydrophobicity expressed as N-GP of about 1.0 or about 1.1.

LNP surface hydrophobicity (N-GP*) | SMILES
1.00 | CCCCCCCC(CCCCCCC)OC(=O)CCCCCCCN(CCCCCCCC(=O)OCCC(CCCC)CCCC)CCCNS(=O)(=O)Cc1ccon1 [Compound 20]
1.18 | CCCCCCCC(CCCCCCC)OC(=O)CCCCCCCN(CCCCCCCC(=O)OCCC(CCCC)CCCC)CCCNc1ncccc1N [Compound 21]
0.95 | CCCCCC(CCCCC)CCOC(=O)CCCCCCCN(CCCCCCCC(=O)OCCC(CCCCC)CCCCC)CCCNc1noc(N)n1 [Compound 23]
